# Source: the METLIN SMRT retention time set (Domingo-Almenara et al. 2019)
# Test: gradient 5% acetonitrile 3 min, to 50% in 2 min, to 85% in 15 min, held 3 min, 100 µL/min
# Settings: column: Zorbax Extend-C18 2.1 x 50 mm; eluents: water / acetonitrile, 0.1% formic acid
# Method in brief: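 Standards, all pure, were combined into mixtures of ~100 molecules and run at 100 μL/min on a Zorbax Extend-C18 column (2.1 × 50 mm, 1.8 μm) with water and acetonitrile, each containing 0.1% formic acid. A coupled quadrupole time-of-flight mass spectrometer operated in positive and negative ionization mode. Retention time values come from computationally picked adduct peaks, each inspected manually.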
row,Compound,RP-LC retention time [s]
1,Cc1cc(C)n(Cc2ccc(C(=O)NCC3Cn4cccc4C(=O)N3C)o2)n1 (stereo not given),634
2,Cc1cc(C)nc(SCC(=O)Nc2nc(-c3ccccc3)c(-c3ccccc3)o2)n1,1050
3,CCc1nc(-c2ccc(C(=O)N3CCN(C(=O)c4ccco4)CC3)cc2)cs1,767
4,CCOC(=O)c1c(C)[nH]c(C(=O)N2CCC(CC(=O)N3CCCC3)CC2)c1C,694
5,COc1ccc(Cl)cc1NC(=O)C1CCCN(c2ncnc3c2nc2n3CCCCC2)C1 (stereo not given),934
6,CCOC(=O)c1c(C)oc2nc(C)nc(NCC3CCN(Cc4ccccc4F)CC3)c12,702
7,COc1ccc(-c2noc(Cc3nnc(-c4ccc(C)c(C)c4)o3)n2)cc1,1090
8,COc1ccc(S(=O)(=O)N2CCCC(c3nnnn3-c3ccccc3)C2)cc1 (stereo not given),905
9,Cn1c(=O)c2c(nc(N3CCCCC3)n2C)n(C)c1=O,794
10,CCC(C)NC(=O)N1CCN(Cc2nc3cc(C(=O)N(C)C)ccc3n2C)CC1 (stereo not given),586
11,CCN(CC)S(=O)(=O)c1ccc(C)c(NC(=O)c2ccccc2C(=O)O)c1,575
12,Cc1ccc(C(=O)Nc2nccnc2C(=O)NC(C)c2ccc(F)cc2)cc1 (stereo not given),1060
13,Cc1cccnc1NC(=O)C1CCN(S(=O)(=O)c2cc(C(=O)N3CCCCCC3)cs2)CC1,675
14,COc1ccc(CN(Cc2cc(=O)n3cccc(C)c3n2)CC(C)C)cc1OC,635
15,O=C(NCc1ccccc1)c1nc(Cn2c(=O)oc3ccccc32)no1,880
16,CN(C)C(=O)c1ccc2oc(CN3CCN(C(=O)NCc4ccco4)CC3)nc2c1,582
17,O=C(Nc1nnc(-c2ccco2)o1)c1ccc2c(c1)CCCC2,775
18,Cc1ccc(NS(=O)(=O)c2c[nH]c3ncccc23)cc1F,761
19,Cc1ccc2[nH]cc(CCNC(=O)NC3CCCCC3)c2c1,874
20,COc1ccc(Cl)cc1C(=O)Nc1ccc(-c2cn3ccc(C)nc3n2)cc1,727
21,Cc1ccnc(Nc2nc(C)c(C(=O)N3CCOCC3)s2)c1,617
22,Cc1cccc(NC(=O)Cn2c(-c3cnccn3)nc(C)c(C)c2=O)c1C,743
23,CC(C)n1cc(C#N)c(N)n1,658

row,Compound,RP-LC retention time [s]
1,O=C(Nc1cccc(Br)c1)C1CCN(C(=O)c2cc(-c3ccncc3)n[nH]2)CC1,640
2,COc1ccc(NC(=O)N2CCC(n3c(C)nc4cccnc43)CC2)cc1OC,563
3,Cc1ccc(-c2coc(-c3ccc(NC(=O)C(C)(C)C)cc3)n2)cc1,1220
4,COc1ccc(N2CCN(C(=O)C3CCN(C(=O)C4Sc5ccccc5NC4=O)CC3)CC2)cc1 (stereo not given),705
5,COc1ccccc1-n1ccn(Cc2nc(-c3ccccc3C)no2)c(=O)c1=O,850
6,CCOC(=O)c1cccc(Nc2c(-c3ccc4c(c3)OCO4)nc3cnccn23)c1,834
7,CCC(c1cccs1)N1C(=O)[C@H]2CN(S(=O)(=O)c3ccc(OC)cc3)C[C@H]2C1=O (stereo not given in full),910
8,O=C(c1cccc(C(F)(F)F)c1)N1CCN(c2cc(-n3ccnc3)ncn2)CC1,606
9,CCCCNC(=O)CCc1c(C)n(CC)c2nc(-c3ccccc3)nn2c1=O,796
10,Cc1ccc(S(=O)(=O)N2CCC(CCC(=O)NC3CC3)CC2)cc1,789
11,Cc1ccc(-n2nc(C)c3sc(N4CCCC(C(=O)NCc5ccc(F)cc5Cl)C4)nc32)cc1 (stereo not given),1220
12,Cc1cc(Cl)ccc1NC(=O)CC1COc2ccccc2NC1=O (stereo not given),770
13,CCCNC(=O)c1cn(-c2cc(-c3nc(C(C)C)no3)ccn2)cn1,860
14,CC(Cc1ccccc1)NC(N)=O (stereo not given),698
15,Cc1nnc2ccc(-c3noc(-c4ccc(Cl)cc4)n3)cn12,959
16,Cc1ccn2c(NC(=O)COc3ccc(Cl)cc3)c(-c3ccc(F)cc3)nc2c1,759
17,CCn1cc(CC(=O)NCc2ccc(C)o2)c2cccnc21,682
18,CCn1cc(S(=O)(=O)N2C[C@@H](COC)[C@H](c3ccncc3)C2)cn1,625
19,CCc1cccc(NC(=O)Cn2c(-c3cnccn3)nc(C)c(C)c2=O)c1,809
20,CCNC(=O)[C@H]1O[C@@H](n2cnc3c(N)ncnc32)C(O)[C@H]1O (stereo not given in full),555
21,O=C(NCc1cccc(Cl)c1)C1CCCN(c2nc3cccnc3n(Cc3ccccc3)c2=O)C1 (stereo not given),1190
22,O=C(CCCS(=O)(=O)Cc1ccccc1)Nc1nc2c(s1)Cc1ccccc1-2,841
23,CCCNC(=O)N1CCN(Cc2nc3cccnc3n2-c2cc(C)cc(C)c2)CC1,656

row,Compound,RP-LC retention time [s]
1,COCCNC(=O)N1CCCN(C2=NS(=O)(=O)C(c3ccc(C)c(C)c3)=C2C)CC1,738
2,COc1ccc(NC(=O)N2CCC3(CC2)NC(=O)c2cc(C)ccc2N3C)cc1,742
3,Cc1ccc(-c2nc(N)n(C(=O)c3ccc(C(C)(C)C)cc3)n2)cc1C,1350
4,CC(C)n1cc(C2=CCN(S(=O)(=O)Cc3ccccc3)CC2)c2cccnc21,1020
5,O=C(Cn1nc2n(c1=O)CCCCC2)Nc1cccc(Cl)c1,730
6,CN(C)c1ccc(CNS(=O)(=O)c2cc(-c3nc(C(C)(C)C)cs3)cs2)cc1,1100
7,CCOc1ccc(-n2nnnc2CNS(=O)(=O)c2cccc(C(F)(F)F)c2)cc1,892
8,CCCN(CC1CCOC1)C(=O)NCc1ccc(C)cc1 (stereo not given),796
9,C[C@H]1CN(C(=O)c2ccc(F)cc2F)C[C@@H]1c1nc(-c2ccccc2)no1,1040
10,Cc1ccccc1N1CCN(C(=O)Cn2c(=O)c3nnc(C)n3c3ncccc32)CC1,793
11,Cc1ccc(-c2nc(CN3CCOCC3)c(C)o2)cc1,640
12,O=C(CCC1CCCN(S(=O)(=O)c2ccccc2)C1)NCc1ccc(Cl)cc1 (stereo not given),979
13,Cc1oc(-c2cccc(Cl)c2)nc1COc1cc(C)c2c(C)nn(C)c2n1,1340
14,COCC1CN(C2CCC2)CC12CCN(C(=O)C1CCN(C(C)=O)CC1)CC2 (stereo not given),561
15,O=C(NCc1csc(C2CCCN(C(=O)c3cc(F)cc(F)c3)C2)n1)C1CCC1 (stereo not given),771
16,O=C(Nc1ccc(OCc2nnc(-c3ccccc3)o2)cc1)c1cnccn1,832
17,Cc1ccccc1CNC1=NCCNC12CCN(S(=O)(=O)c1ccc3c(c1)CCCC3)CC2,851
18,Cc1ccc(-c2noc(CCN3CCN(c4ccccn4)CC3)n2)cc1,625
19,O=C(CN1C(=O)CCCc2cc(S(=O)(=O)N3CCCCCC3)ccc21)N1CCCCCC1,915
20,COCCCNC(=O)c1ccc2c(c1)N(Cc1ccc(F)cc1)C(=O)CO2,711
21,O=C(CSc1nnc2c(=O)n(-c3ccc(F)cc3)ccn12)c1ccc(F)cc1,802
22,Cc1c(F)cccc1NC(=O)Nc1ccc2nncn2c1,660
23,O=C(Cc1ccccc1F)Nc1ccc(-c2cn3c(C(=O)N4CCCC4)csc3n2)cc1,791

row,Compound,RP-LC retention time [s]
1,CCCn1c(C)cnc1C1CN(S(=O)(=O)Cc2ccccc2)C1,652
2,CCNC(=O)N1CCCN(S(C)(=O)=O)CC1,566
3,Cn1nc(-c2nc(-c3cccc(Cl)c3)no2)ccc1=O,942
4,O=C1NCCCCCCN(C(=O)c2ccoc2)[C@H]2C[C@H](C(=O)N3CCc4ccccc4C3)C[C@@H]12,762
5,Cn1c(=O)c(SCC(=O)NCc2cccc(Cl)c2)nc2ccccc21,819
6,CCn1cc2c(n1)c(=O)n(Cc1ccccc1)c(=O)n2CC(=O)NCc1ccccc1Br,890
7,CCCCNC(=O)CSc1nnc(C)c2c(C)n(-c3ccccc3)nc12,646
8,COc1ccc(OC)c(NC(=O)c2[nH]c3cc(C)sc3c2CN2CCOCC2)c1,705
9,CC(C)NC(=O)c1cc(N2CCCC2)nc2ccccc12,594
10,CCNc1cc(N2CCCC(CCC(=O)N3CCCC(CN4CCCC4)C3)C2)ncn1 (stereo not given),571
11,O=C(NCc1ccccc1C(F)(F)F)C1CCCN(c2nccnc2Sc2ccccc2)C1 (stereo not given),1110
12,CCCc1nc2cccnc2n1C1CCN(C(=O)c2ccc(N3CCCC3=O)cc2)C1 (stereo not given),579
13,Cc1cnc(-n2nnc(C(=O)N3CCN(C(=O)c4ccco4)CC3)c2C)s1,687
14,COc1cc(OC)c(/C=C2/C(=O)Nc3ccccc32)c(OC)c1,986
15,COCC(C)NC(=O)C(=O)NCc1cccs1 (stereo not given),658
16,CCOc1ccccc1NC(=O)C1CCN(S(=O)(=O)c2cc(-c3noc(C)n3)cs2)CC1,996
17,CCN(CC)c1ccc(Nc2nc(-c3ccc(Cl)cc3)cs2)cc1,791
18,Cc1cc2nn(CC(=O)N3CCCC3)c(=O)n2c(-c2ccc(C(F)(F)F)cc2)n1,774
19,CN1C2CCC1CC(OC(=O)[C@H](CO)c1ccccc1)C2 (stereo not given in full),667
20,Cc1nc(-c2ccc(C)c(S(=O)(=O)NCCN(C)C)c2)cs1,612
21,O=C(NCc1ccc(F)cc1F)c1ccc2c(c1)nc1n2CCN(Cc2ccccc2)C1=O,795
